Experimental data: publication PMC6868852, “Molecular cloning and characterization of a grapevine (Vitis vinifera L.) serotonin N-acetyltransferase (VvSNAT2) gene involved in plant defense” (BMC Genomics, 2019)

System: VvSNAT2
Experiment: HPLC product quantification; Lineweaver-Burk
Assay type: biochemical, Vitis vinifera
Settings: acetyl-CoA 0.5 mM; 100 mM potassium phosphate pH 8.8; 30 min at 45 °C (Fig. 3 legend; Methods print below 30 °C)

NCCc1c[nH]c2ccc(O)cc12 [serotonin]
Km: 392 µM
